The source of these data is patent publication US20040034050A1, “Homo-camptothecin derivatives” (priority 2002, published 2004).

The test system of this test is VM46 cells. In words: Cell colony formation assay. In kind it is cell-based. The settings on record: drug concentration producing 50% inhibition of colony formation, incubated with drugs for 72 hours at 37° C., colonies counted after 8 days. The method, then:
This example provides directions for growing cells and testing compounds of the invention for their effect on the growth of the cells. All cells are purchased from DCTDC Tumor Repository, NCI, NIH.
Cell Colony Formation Assay
Five hundred cells (VM46) were plated in 60 mm Petri dishes containing 2.7 ml of medium (modified McCoy's 5a medium containing 10% bovine calf serum and 100 units/ml penicillin and […] streptomycin). The cells were incubated in a CO2 incubator at 37° C. for 5 hours for attachment to the bottom of Petri dishes. Drugs were made fresh in medium at ten times the final concentration, and then 0.3 ml of this stock solution was added to the 2.7 ml of medium in the dish. The cells were then incubated with drugs for 72 hours at 37° C. At the end of the incubation the drug-containing media were decanted, the dishes were rinsed with 4 ml of Hank's Balance Salt Solution (HBSS), 5 ml of fresh medium is added, and the dishes are returned to the incubator for colony formation. The cell colonies were counted using colony counter after incubation for 8 days for VM46 cells.
Values of ID50 (the drug concentration producing 50% inhibition of colony formation) may be determined for each tested compound.
Regarding `CC[C@@]1(O)CC(=O)OCc2c1cc1n(c2=O)Cc2cc3ccccc3nc2-1` (racemic) [homo-campothecin, homo-camptothecin], the “Values of ID 50” value is given as 4 nM.

Regarding `CCC1(OC(=O)COc2cccc(Cl)c2Cl)CC(=O)OCc2c1cc1n(c2=O)Cc2cc3ccccc3nc2-1` (centres unmarked) [Example 1158, Homocamptothecin-20-O Ester of 2,3-Dichlorophenoxy Acetic Acid], the “Values of ID 50” value is reported as 1.5 nM.

For the compound `CCC1(OC(=O)COc2ccc(F)cc2)CC(=O)OCc2c1cc1n(c2=O)Cc2cc3ccccc3nc2-1` (centres unmarked) [Example 1160, Homo-camptothecin-20-O-ester of 4-Fluorophenoxyacetic Acid], the “Values of ID 50” value is listed as 1.5 nM.

With `CCC1(OC(=O)COc2ccc(OC(F)(F)F)cc2)CC(=O)OCc2c1cc1n(c2=O)Cc2cc3ccccc3nc2-1` (centres unmarked) [Example 1164, Homo-camptothecin-20-O-ester of 4-Trifluoromethoxyphenoxyacetic Acid], the “Values of ID 50” value came out at 3.5 nM.

Take `CCC1(OC(=O)COc2ccccc2Cl)CC(=O)OCc2c1cc1n(c2=O)Cc2cc3ccccc3nc2-1` (centres unmarked) [Example 021229, Homocamptothecin-20-O Ester of 2-Chlorophenoxy Acetic Acid]: the “Values of ID 50” value came out at 2 nM.
